Legend:
MEK1 = biological target: T1, MEK1 (Homo sapiens, UniProt Q02750); assay: MEK1 kinase cascade assay (ADP-Glo), inhibition of MEK1 kinase activity; assay type: biochemical; details: 25 nM BRAF, 6.25 nM MEK1, 0.5 μM ERK, 1 mM ATP; 20 min preincubation, 1 hr at 25° C.; read-out: BRAF ADP Glo kinase assay V3 (IC50)
T1 construct: purchased SignalChem M02-14H
Procedure, shortened: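 Compounds were preincubated 20 mins at 25° C with 25 nM BRAF(445-723) in 10 mM HEPES pH 7.5, 5 mM MgCl2, 2 mM CHAPS, 1 mM DTT, then 6.25 nM MEK1, 0.5 μM ERK1 and 1 mM ATP were added for 1 hr at 25° C, with 1% DMSO. ADP-Glo luminescence was normalized to DMSO and 1 μM Trametinib; IC50 came from 4-parameter fits of duplicates.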

BRAF-MEK1 = assay: BRAF-MEK TR-FRET assay, stabilization of MEK1 and BRAF interaction; assay type: binding; details: 4 nM BRAF, 10 nM MEK, 100 μM ATP; 1 hr at 25° C.; read-out: BRAF-MEK TR-FRET Assay (EC50, fold stabilization)
Description: Protein expression and purification: BRAF (445-723) with N-term His-tag and C-term StrepII tag was expressed using the Expi293 system (ThermoFisher) and purified using Strep-Tactin® XT-Superflow (IBA) chromatography. ERK1 (full-length) with N-term His-tag was expressed in Rosetta DE3 cells (Millipore) and purified using HisTrap HP (Cytiva) and Superdex 200 (Cytiva) column chromatography. Full-length MEK1 for TR-FRET assays with N-term His-tag was expressed in BL21DE3 cells (ThermoFisher) and purified using HisTrap HP (Cytiva) and Superdex 200 (Cytiva) column chromatography.
Efficacy of exemplary compounds in stabilization of MEK1 and BRAF interaction: Compound stabilization of BRAF-MEK interaction was evaluated using TR-FRET (Time Resolved Fluorescence Energy Transfer). The FRET assay consisted of His-tagged MEK1 (produced in-house), GST-tagged BRAF (SignalChem, B08-11G), Anti His-Tb Cryptate donor, and Anti GST-XL665 acceptor fluorophores (PerkinElmer) to generate FRET signal upon BRAF-MEK1 binding. Compounds were prepared from DMSO stocks in assay buffer (50 mM Tris pH 7.5, 150 mM NaCl, 1 mM DTT, 0.05% Tween-20, 5 mM MgCl2, and 100 μM ATP) and incubated with 4 nM BRAF and 10 nM MEK for 1 hr at 25° C. 1 ng Anti His-Tb Cryptate/20 ng Anti GST-XL665 premix was then added and incubated for 1 hr at 25° C. TR-FRET was measured using Cytation5 microplate reader (Agilent) using Ex/Em=340/620 nm and Ex/Em=340/665 nm to determine the FRET ratio. Fold stabilization was calculated as FRET signal of treated well/DMSO control. Fold stabilization as a function of compound concentration from 2 replicate wells was fit with a 4-parameter logistic curve equation using GraphPad Prism or CDD Vault to derive EC50 values.
In this table, for the BRAF ADP Glo kinase assay, “A” indicates IC50 of less than 5 nM; “B” indicates IC50 of between 5 nM to 50 nM; and “C” indicates IC50 of between 50 nM to 500 nM. “D” indicates IC50 of greater than 500 nM. For the BRAF-MEK TR-FRET assay, “A” indicates EC50 of less than 50 nM; “B” indicates EC50 of between 50 nM to 200 nM; and “C” indicates EC50 of between 200 nM to 1 μM. “D′” indicates EC50 of greater than 1 μM. For the AlphaLisa P-ERK assay, “A” indicates IC50 of less than 1 nM; “B” indicates IC50 of between 1 nM to 10 nM; and “C” indicates IC50 of between 10 nM to 100 nM. “D” indicates IC50 of greater than 100 nM. For the cell viability assay, “A” indicates IC50 of less than 1 nM; “B” indicates IC50 of between 1 nM to 10 nM; and “C” indicates IC50 of between 10 nM to 100 nM. “D” indicates IC50 of greater than 100 nM.

T1 sequence (Q02750 whole entry): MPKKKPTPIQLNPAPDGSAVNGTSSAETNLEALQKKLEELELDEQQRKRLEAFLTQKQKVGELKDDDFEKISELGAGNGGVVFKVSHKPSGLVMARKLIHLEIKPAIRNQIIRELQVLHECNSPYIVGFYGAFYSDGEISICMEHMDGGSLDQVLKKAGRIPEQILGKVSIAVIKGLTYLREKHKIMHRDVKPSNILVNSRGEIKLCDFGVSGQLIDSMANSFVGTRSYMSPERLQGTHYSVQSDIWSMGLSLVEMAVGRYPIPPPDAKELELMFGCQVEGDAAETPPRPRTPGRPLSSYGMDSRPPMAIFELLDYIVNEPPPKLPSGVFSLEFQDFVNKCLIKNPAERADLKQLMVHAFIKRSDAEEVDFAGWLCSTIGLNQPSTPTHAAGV
T1 sequence (P15056 445-723 partner limits assumed): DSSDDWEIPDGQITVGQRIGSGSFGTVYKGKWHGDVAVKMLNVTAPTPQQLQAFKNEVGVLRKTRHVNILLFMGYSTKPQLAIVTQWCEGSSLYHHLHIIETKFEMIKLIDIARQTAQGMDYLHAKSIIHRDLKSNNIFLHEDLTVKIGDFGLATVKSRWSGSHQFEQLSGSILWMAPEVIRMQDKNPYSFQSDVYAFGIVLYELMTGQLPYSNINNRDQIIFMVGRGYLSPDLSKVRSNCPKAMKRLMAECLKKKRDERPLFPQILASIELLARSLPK

Structure (SMILES)	IC50 (MEK1) [µM]	EC50 (BRAF-MEK1) [µM]
CNS(=O)(=O)Nc1cccc(CN2Cc3ccc(Oc4ncco4)c(F)c3OC2=O)c1F [Compound 91, 8-fluoro-3-{[2-fluoro-3-(methylaminosulfonylamino)phenyl]methyl}-7-(1,3-oxazol-2-yloxy)-3,4-dihydro-2H-1,3-benzoxazin-2-one]	< 0.005	0.2 to 1
CNS(=O)(=O)Nc1cccc(CN2Cc3cc(F)c(OC(=O)N(C)C)c(F)c3OC2=O)c1F [Compound 96, 6,8-difluoro-3-(2-fluoro-3-((N-methylsulfamoyl)amino)benzyl)-2-oxo-3,4-dihydro-2H-benzo[e][1,3]oxazin-7-yl dimethylcarbamate]	< 0.005	0.05 to 0.2
COC1CCN(S(=O)(=O)Nc2cccc(CN3Cc4ccc(OC(=O)N(C)C)cc4OC3=O)c2F)C1 (stereo not shown) [Compound 100, 3-(2-fluoro-3-((3-methoxypyrrolidine)-1-sulfonamido)benzyl)-2-oxo-3,4-dihydro-2H-benzo[e][1,3]oxazin-7-yl dimethylcarbamate]	0.005 to 0.05	0.2 to 1
CNS(=O)(=O)Nc1cccc(CN2C(=O)Oc3cc(OC(=O)N(C)C)c(Cl)cc3[C@H]2C)c1F [Compound 107, (R)-6-chloro-7-(dimethylaminocarbonyloxy)-3-{[2-fluoro-3-(methylaminosulfonylamino)phenyl]methyl}-4-methyl-3,4-dihydro-2H-1,3-benzoxazin-2-one]	0.005 to 0.05	0.2 to 1
CN(C)C(=O)Oc1ccc2c(c1)OC(=O)N(Cc1cccc(NS(=O)(=O)N3CC4(COC4)C3)c1F)C2 [Compound 109, 3-(2-fluoro-3-(2-oxa-6-azaspiro[3.3]heptane-6-sulfonamido)benzyl)-2-oxo-3,4-dihydro-2H-benzo[e][1,3]oxazin-7-yl dimethylcarbamate]	0.005 to 0.05	0.2 to 1
CN(C)C(=O)Oc1ccc2c(c1)OC(=O)N(Cc1cccc(NS(=O)(=O)N3CCOCC3)c1F)C2 [Compound 110, 3-(2-fluoro-3-(morpholine-4-sulfonamido)benzyl)-2-oxo-3,4-dihydro-2H-benzo[e][1,3]oxazin-7-yl dimethylcarbamate]	0.005 to 0.05	0.2 to 1
CNS(=O)(=O)Nc1cccc(CN2Cc3cc(F)c(OC(=O)N(C)C)cc3OC2=O)c1F [Compound 120, 6-fluoro-3-(2-fluoro-3-((N-methylsulfamoyl)amino)benzyl)-2-oxo-3,4-dihydro-2H-benzo[e][1,3]oxazin-7-yl dimethylcarbamate]	< 0.005	0.05 to 0.2
CNS(=O)(=O)Nc1cccc(CN2C(=O)Oc3cc(OC(=O)N(C)C)ccc3[C@@H]2C)c1F [Compound 152, 3-(2-fluoro-3-((N-methylsulfamoyl)amino)benzyl)-4-methyl-2-oxo-3,4-dihydro-2H-benzo[e][1,3]oxazin-7-yl dimethylcarbamate]	0.005 to 0.05	0.2 to 1
CNS(=O)(=O)Nc1cccc(CN2C(=O)Oc3cc(OC(=O)N(C)C)ccc3[C@H]2C)c1F [Compound 153, 3-(2-fluoro-3-((N-methylsulfamoyl)amino)benzyl)-4-methyl-2-oxo-3,4-dihydro-2H-benzo[e][1,3]oxazin-7-yl dimethylcarbamate]	0.005 to 0.05	0.2 to 1
CNS(=O)(=O)Nc1cccc(CN2Cc3ccc(OC(=O)N(C)C)cc3OC2=O)c1F [Compound 156, 3-(2-fluoro-3-((N-methylsulfamoyl)amino)benzyl)-2-oxo-3,4-dihydro-2H-benzo[e][1,3]oxazin-7-yl dimethylcarbamate]	0.005 to 0.05	0.2 to 1
CNS(=O)(=O)Nc1nccc(CN2C(=O)Oc3cc(Oc4ncco4)cc(F)c3C23COC3)c1F [Compound 168, 5-fluoro-3-{[3-fluoro-2-(methylaminosulfonylamino)-4-pyridyl]methyl}-7-(1,3-oxazol-2-yloxy)-2H,3H-spiro[1,3-benzoxazine-4,3′-oxetan]-2-one]	0.005 to 0.05	0.2 to 1
CNS(=O)(=O)Nc1nccc(CN2C(=O)Oc3cc(Oc4cccnn4)cc(F)c3C23CCC3)c1F [Compound 171, 5-fluoro-3-{[3-fluoro-2-(methylaminosulfonylamino)-4-pyridyl]methyl}-7-(3-pyridazinyloxy)-2H,3H-spiro[1,3-benzoxazine-4,1′-cyclobutan]-2-one]	< 0.005	< 0.05
CNS(=O)(=O)Nc1nccc(CN2C(=O)Oc3c(ccc(Oc4ncco4)c3F)C23CCC3)c1F [Compound 173, 8-fluoro-3-{[3-fluoro-2-(methylaminosulfonylamino)-4-pyridyl]methyl}-7-(1,3-oxazol-2-yloxy)-2H,3H-spiro[1,3-benzoxazine-4,1′-cyclobutan]-2-one]	0.005 to 0.05	< 0.05
CNS(=O)(=O)Nc1nccc(CN2C(=O)Oc3c(ccc(Oc4cccnn4)c3F)C23CCC3)c1F [Compound 174, 8-fluoro-3-{[3-fluoro-2-(methylaminosulfonylamino)-4-pyridyl]methyl}-7-(3-pyridazinyloxy)-2H,3H-spiro[1,3-benzoxazine-4,1′-cyclobutan]-2-one]	0.005 to 0.05	< 0.05
CNS(=O)(=O)Nc1nccc(CN2C(=O)Oc3c(ccc(Oc4nccnn4)c3F)C23CCC3)c1F [Compound 177, 8-fluoro-3-{[3-fluoro-2-(methylaminosulfonylamino)-4-pyridyl]methyl}-7-(1,2,4-triazin-3-yloxy)-2H,3H-spiro[1,3-benzoxazine-4,1′-cyclobutan]-2-one]	< 0.005	< 0.05
CNS(=O)(=O)Nc1nccc(CN2C(=O)Oc3cc(Oc4cccnn4)cc(F)c3C23COC3)c1F [Compound 178, 5-fluoro-3-{[3-fluoro-2-(methylaminosulfonylamino)-4-pyridyl]methyl}-7-(3-pyridazinyloxy)-2H, 3H-spiro[1,3-benzoxazine-4,3′-oxetan]-2-one]	0.005 to 0.05	0.2 to 1
CN(C)S(=O)(=O)Nc1nccc(CN2C(=O)Oc3cc(Oc4ncco4)ccc3C23CCC3)c1F [Compound 179, 3-{[2-(dimethylaminosulfonylamino)-3-fluoro-4-pyridyl]methyl}-7-(1,3-oxazol-2-yloxy)-2H,3H-spiro[1,3-benzoxazine-4,1′-cyclobutan]-2-one]	0.005 to 0.05	0.2 to 1
CN(C)S(=O)(=O)Nc1nccc(CN2C(=O)Oc3cc(Oc4cccnn4)ccc3C23CCC3)c1F [Compound 181, 3-{[2-(dimethylaminosulfonylamino)-3-fluoro-4-pyridyl]methyl}-7-(3-pyridazinyloxy)-2H,3H-spiro[1,3-benzoxazine-4,1′-cyclobutan]-2-one]	0.005 to 0.05	0.2 to 1
O=C1Oc2c(ccc(Oc3ncco3)c2F)C2(CCC2)N1Cc1ccnc(NS(=O)(=O)C2CC2)c1F [Compound 183, (cyclopropylsulfonyl)[3-fluoro-4-({8-fluoro-7-(1,3-oxazol-2-yloxy)-2-oxo-2H,3H-spiro[1,3-benzoxazine-4,1′-cyclobutan]-3-yl}methyl)-2-pyridyl]amine]	0.05 to 0.5	0.2 to 1
O=C1Oc2c(ccc(Oc3cccnn3)c2F)C2(CCC2)N1Cc1ccnc(NS(=O)(=O)C2CC2)c1F [Compound 184, (cyclopropylsulfonyl)[3-fluoro-4-({8-fluoro-2-oxo-7-(3-pyridazinyloxy)-2H,3H-spiro[1,3-benzoxazine-4,1′-cyclobutan]-3-yl}methyl)-2-pyridyl]amine]	0.05 to 0.5	0.05 to 0.2

Reference: patent US20260297105A1, “RAF-MEK PROTEIN COMPLEX MODULATORS AND METHODS OF USE THEREOF” (GANDEEVA THERAPEUTICS, INC., priority 2023, published 2026)
